Data taken from ChEMBL document CHEMBL1151024, “Synthesis and cardiotonic activity of 2,9-dihydro-6-(5-methyl-3-oxo-2,3,4,5-tetrahydropyridazin-6-yl)pyrazolo[4,3-b][1,4]benzoxazine” (Bioorg Med Chem Lett, 1993).
In brackets after ≈: the same amount, converted by molar mass.

How the values were obtained:
[1] = Solubility in 1 M HCl; type: physicochemical; details: read-out: S
Canis familiaris [2] = assay: Maximum increase in cardiac force at 75 ug/Kg was observed in an anesthetized dog model(iv); type: functional, Canis lupus familiaris
Canis familiaris [3] = assay: The mean arterial blood pressure drop after administration was determined; type: functional, Canis lupus familiaris
Canis familiaris [4] = species on record: Canis familiaris; assay: The differential (dp/dt) maximal rise in blood pressure with respect to time was evaluated; type: functional, Canis lupus familiaris
Canis familiaris [5] = assay: Tested for effective dose required to produce cardiotonic activity after intravenous administration in anesthetized dog model; type: functional; details: Canis lupus familiaris
[6] = Solubility in 1 M HCl; compound is insoluble; type: physicochemical; details: buffer
Canis familiaris [7] = assay: The high peak activity was evaluated at a dose of 35 ug/kg intravenously in dog; type: functional, Canis lupus familiaris

solubility [1]	S [6]	SMILES	Increase (Canis familiaris [2])	Decrease in blood pressure (Canis familiaris [3])	Change (Canis familiaris [4])	ED50 (Canis familiaris [5])	Activity (Canis familiaris [7])
300 µg/mL (≈ 1060 µM)		CC1CC(=O)NN=C1c1ccc2c(c1)Oc1cn[nH]c1N2 (centres undefined)	256%	21%	119%	0.015 mg/kg	
	Insoluble	CC1CC(=O)NN=C1c1ccc2c(c1)OCC(=O)N2 (centres undefined) [BEMORADAN]	127%			0.0054 mg/kg	200
